A short description of the data set: Oral administration of rhGH with delivery agent or conjugate in rats, serum rhGH by immunoassay. The format is in vivo, Sprague-Dawley rats. The conditions noted are these: individual rat, 200 mg/kg conjugate = 20 mg/kg delivery agent. The procedure: Oral gavage (PO) and/or intracolonic (IC) dosing solutions of delivery agent compound and rhGH in water, phosphate buffer (PB) or 5% aqueous ethanol were prepared. Typically, a solution of the conjugate was prepared by mixing in water and stirred. The final dosing solutions were prepared by mixing the conjugate solution with an rhGH stock solution (typically 15 mg rhGH/ml) and diluting to the desired volume (usually 3.0 ml). The compounds and rhGH dose amounts are listed below in Table 1.
Male Sprague-Dawley rats weighing between 200-250 g were fasted for 24 hours and administered ketamine (44 mg/kg) and chlorpromazine (1.5 mg/kg) 15 minutes prior to dosing. A dosing group of five rats was administered one of the dosing solutions. For oral gavage (PO), an […] Rusch 8 French catheter was adapted to a 1 ml syringe with a pipette tip. The syringe was filled with dosing solution by drawing the solution through the catheter, which was then wiped dry. The catheter was placed down the esophagus leaving 1 cm of tubing past the rat's incisors. Solution was administered by pressing the syringe plunger. For intracolonic (IC) dosing, a 7.5 cm Rusch catheter tube (French 8 or 6) was adapted to a syringe with an Eppendorf pipette tip. The syringe was filled with the 0.5 ml dosing solution by drawing the solution through the catheter tube. The catheter tube was wiped dry. K-Y jelly was applied to the tip, avoiding contact with the eye of the tube, and the tube was inserted into the colon through the anus until the tube was no longer visible. The solution was injected by pressing the syringe plunger, and the tube was removed.
Blood samples were collected serially from the tail artery, typically at time=0, 15, 30, 45, 60 and 90 minutes for oral and 0, 10, 20, 30, 60 and 90 for IC dosing. Serum rHGH concentrations were quantified by an rHGH immunoassay test kit (Kit # K1F4015 from Genzyme Corporation Inc., Cambridge, Mass.). Previous studies indicated baseline values of about zero.
The experiments were performed at 1/10 the delivery agent concentration versus that of the conjugate. Thus, at a dose of 200 mg/kg conjugate, the actual amount of delivery agent dosed was 20 mg/kg.

Structures are written as SMILES. Values joined by “and” are separate entries in the source; they are usually repeats but may differ in a detail not shown here. Equal values may be shown once.

As for `O=C(O)CCCCCCCNC(=O)c1ccccc1O` [delivery agent I], where the note is “15 min, listed as (a)”, the “Serum rhGH concentration, Min15” value was 45.34 and 0 and 64.2 and 43.14 and 84.73 and 79.98 and 48.72. Besides, the “Serum rhGH concentration, Min30” value (30 min, listed as (a)) was 46.52 and 58.44 and 18.99 and 23.44 and 13.19 and 22.69 and 1.82. Moreover, the “Serum rhGH concentration, Min45” value (45 min, listed as (a)) was 35.53 and 0 (4×) and 4.29 and 18.35. In addition, the “Serum rhGH concentration, Min60” value (60 min, listed as (a)) was 34.885 and 3.922 and 10.13 and 15.93 and 10.565 and 5.49 and 7.905. The “Serum rhGH concentration, Min90” value (90 min, listed as (a)) was 2.715 and 0 (5×) and 1.47. For the same compound, where the note is “baseline (time 0)”, the “Serum rhGH concentration, Base line” value is listed as 0.

The values above are taken from patent US7727558B2, “Polymeric delivery agents and delivery agent compounds” (Emisphere Technologies, Inc., priority 1999, dated 2010).
